The record followed here is patent US7649000B2, “Selective dipeptide inhibitors of kallikrein” (Vantia Limited, priority 2002, dated 2010).

Type in all cases: biochemical
One assay deals with T1, Human plasma kallikrein (Homo sapiens, UniProt P03952).
T1 construct: purchased Callbiochem (Calbiochem)
Kind of assay: Determination of the inhibition constant Ki for plasma kallikrein (chromogenic substrate S-2302, Dixon plot). The following applies: substrate S-2302, 37° C. On the procedure:
Determination of the Inhibition Constant Ki for Plasma Kallikrein
(§1) Inhibition of plasma kallikrein activity in vitro was determined using standard published methods (see e.g. Johansen et al., Int. J. Tiss. Reac. 1986, 8, 185; Shori et al., Biochem. Pharmacol., 1992, 43, 1209; Stüjrzebecher et al., Biol. Chem. Hoppe-Seyler, 1992, 373, 1025). Human plasma kallikrein (Callbiochem) was incubated at 37° C. with three different concentrations of the chromogenic substrate S-2302 (Chromogenix AB) and various concentrations of the test compound. Residual enzyme activity (initial rate of reaction) was determined by measuring the change in optical absorbance at 405 nm and the inhibitory constant Ki for the test compound as determined from a Dixon plot (Dixon, Biochem. J., 1953, 55, 170).

Another assay deals with Human Tissue Kallikrein (Homo sapiens, UniProt P06870). In words: Enzyme selectivity: inhibition of human tissue kallikrein (substrate S-2266). The following applies: for Selectivity: (Ki for Human Tissue Kallikrein)/(Ki for plasma kallikrein); for pKi: Human Tissue Kallikrein, substrate S-2266. On the procedure:
as §1, with “Reac. 1986, 8, 185;” left out, “Pharmacol., 1992, 43, 1209;” left out, “[…] Determination of Enzyme Selectivity Selected compounds were further screened for inhibitory activity against other trypsin-like proteases following the method of Example 59 and using the appropriate enzyme and chromogenic substrate (Chromogenix AB). The selectivity is given by: Selectivity=(Ki for test enzyme)/(Ki for plasma kallikrein)” for “J., 1953, 55, 170).”

Another assay has as its target Plasmin (Homo sapiens, UniProt P00747). Kind of assay: Enzyme selectivity: inhibition of plasmin (substrate S-2390). As to the method: as §1, with “Reac. 1986, 8, 185;” left out, “Pharmacol., 1992, 43, 1209;” left out, “[…] Determination of Enzyme Selectivity Selected compounds were further screened for inhibitory activity against other trypsin-like proteases following the method of Example 59 and using the appropriate enzyme and chromogenic substrate (Chromogenix AB). The selectivity is given by: Selectivity=(Ki for test enzyme)/(Ki for plasma kallikrein)” for “J., 1953, 55, 170).”

The target of a further assay is Thrombin (Homo sapiens, UniProt P00734). In words: Enzyme selectivity: inhibition of thrombin (substrate S-2238). On the procedure: as §1
Determination of Enzyme Selectivity
Selected compounds were further screened for inhibitory activity against other trypsin-like proteases following the method of Example 59 and using the appropriate enzyme and chromogenic substrate (Chromogenix AB). The selectivity is given by: Selectivity=(Ki for test enzyme)/(Ki for plasma kallikrein)

For the next assay, the target named is T2, Trypsin (Bos taurus, UniProt P00760).
T2 sequence (P00760 24-246): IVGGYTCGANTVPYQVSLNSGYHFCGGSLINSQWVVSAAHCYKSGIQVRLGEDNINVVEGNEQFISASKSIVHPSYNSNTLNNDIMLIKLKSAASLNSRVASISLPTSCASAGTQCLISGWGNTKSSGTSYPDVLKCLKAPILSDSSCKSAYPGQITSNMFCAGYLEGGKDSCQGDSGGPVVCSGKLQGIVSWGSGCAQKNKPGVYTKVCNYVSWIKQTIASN
In words: Enzyme selectivity: inhibition of trypsin (substrate S-2222). As to the method:
as §1, with “Reac. 1986, 8, 185;” left out, “Pharmacol., 1992, 43, 1209;” left out, “[…] Determination of Enzyme Selectivity Selected compounds were further screened for inhibitory activity against other trypsin-like proteases following the method of Example 59 and using the appropriate enzyme and chromogenic substrate (Chromogenix AB). The selectivity is given by: Selectivity=(Ki for test enzyme)/(Ki for plasma kallikrein)” for “J., 1953, 55, 170).”

pKi: −log10 of the molar value. Counter-ions that a name gives are not always drawn.

T1 sequence (P03952 391-638 limits assumed): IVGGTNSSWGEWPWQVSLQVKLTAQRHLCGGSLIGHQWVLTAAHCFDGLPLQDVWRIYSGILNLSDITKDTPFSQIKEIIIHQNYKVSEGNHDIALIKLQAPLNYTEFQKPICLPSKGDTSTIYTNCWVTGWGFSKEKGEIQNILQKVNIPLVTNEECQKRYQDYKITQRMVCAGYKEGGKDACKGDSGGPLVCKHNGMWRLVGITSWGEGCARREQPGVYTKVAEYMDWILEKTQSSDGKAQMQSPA
T1 sequence (P03952 20-390 partner limits assumed): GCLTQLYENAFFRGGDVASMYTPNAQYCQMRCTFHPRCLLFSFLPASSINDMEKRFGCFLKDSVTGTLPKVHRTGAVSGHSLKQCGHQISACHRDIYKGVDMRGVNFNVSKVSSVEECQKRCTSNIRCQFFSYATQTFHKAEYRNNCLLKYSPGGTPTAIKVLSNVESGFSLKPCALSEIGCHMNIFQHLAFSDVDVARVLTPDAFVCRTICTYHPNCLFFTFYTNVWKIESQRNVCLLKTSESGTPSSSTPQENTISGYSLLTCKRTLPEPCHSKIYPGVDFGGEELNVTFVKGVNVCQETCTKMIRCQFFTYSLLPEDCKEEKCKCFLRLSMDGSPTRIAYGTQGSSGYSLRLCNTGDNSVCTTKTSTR
Sequence of Human Tissue Kallikrein (P06870 25-262): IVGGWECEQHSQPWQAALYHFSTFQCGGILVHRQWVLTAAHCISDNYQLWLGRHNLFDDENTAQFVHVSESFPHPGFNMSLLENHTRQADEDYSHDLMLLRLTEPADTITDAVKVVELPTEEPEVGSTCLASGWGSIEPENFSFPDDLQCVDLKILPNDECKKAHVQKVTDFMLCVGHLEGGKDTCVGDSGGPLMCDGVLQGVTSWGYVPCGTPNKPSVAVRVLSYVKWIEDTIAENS
Sequence of Plasmin (P00747 97-810): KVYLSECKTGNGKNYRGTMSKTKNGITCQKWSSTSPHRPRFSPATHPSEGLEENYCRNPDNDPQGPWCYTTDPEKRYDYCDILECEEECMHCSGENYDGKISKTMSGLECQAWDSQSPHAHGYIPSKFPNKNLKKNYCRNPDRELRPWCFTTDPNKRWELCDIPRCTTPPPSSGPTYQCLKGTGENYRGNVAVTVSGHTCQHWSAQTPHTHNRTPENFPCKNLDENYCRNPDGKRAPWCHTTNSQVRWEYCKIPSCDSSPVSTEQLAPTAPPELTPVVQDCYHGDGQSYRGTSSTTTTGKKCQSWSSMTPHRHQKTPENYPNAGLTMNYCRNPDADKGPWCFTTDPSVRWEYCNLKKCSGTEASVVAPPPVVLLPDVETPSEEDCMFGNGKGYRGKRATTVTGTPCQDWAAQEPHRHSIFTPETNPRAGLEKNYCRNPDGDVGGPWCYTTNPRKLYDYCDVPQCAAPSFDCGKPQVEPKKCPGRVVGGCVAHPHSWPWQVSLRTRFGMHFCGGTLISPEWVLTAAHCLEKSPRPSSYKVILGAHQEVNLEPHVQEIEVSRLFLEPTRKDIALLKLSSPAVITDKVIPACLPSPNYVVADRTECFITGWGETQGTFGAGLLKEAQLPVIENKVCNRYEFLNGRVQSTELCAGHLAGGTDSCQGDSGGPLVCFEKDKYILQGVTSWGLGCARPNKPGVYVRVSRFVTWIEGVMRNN

With `CCOc1ccc(C[C@@H](N)C(=O)N[C@@H](Cc2ccccc2)C(=O)NC2CCN(C(=N)N)CC2)cc1.O=C(O)C(F)(F)F` [Example 1, (2′S,2″R)-4-(2′-(2″-Amino-3″-(4′″-ethoxyphenyl)propanoylamino)-3′-phenylpropanoyl-amino)piperidine-1-carboxamidine trifluoroacetate], on Human plasma kallikrein, the pKi (in general, the Ki on a negative log10 scale, so that one unit is a factor of ten) is 8.35. Besides, at Human Tissue Kallikrein, the Selectivity is 10,000 and the pKi was 4.35.
At Human plasma kallikrein, `COC(=O)CN[C@H](CC1CCCCC1)C(=O)N[C@@H](Cc1ccccc1)C(=O)NC1CCN(C(=N)N)CC1` [Example 2, (2′S,2″R)-4-(2′-(3″-Cyclohexyl-2″-(methyloxycarbonylmethylamino)propanoylamino)-3′-phenylpropanoylamino)piperidine-1-carboxamidine trifluoroacetate] showed a pKi of 7.18.
As to `N=C(N)N1CCC(NC(=O)[C@H](Cc2ccccc2)NC(=O)[C@@H](CC2CCCCC2)NCC(=O)O)CC1.O=C(O)C(F)(F)F` [Example 3, (2′S,2″R)-4-(2′-(2″-(Carboxymethylamino)-3″-cyclohexylpropanoylamino)-3′-phenyl-propanoylamino)piperidine-1-carboxamidine trifluoroacetate], the Selectivity on Plasmin ((Ki for Plasmin)/(Ki for plasma kallikrein)) is 1,000; at Thrombin ((Ki for Thrombin)/(Ki for plasma kallikrein)) it was 100; on Human Tissue Kallikrein, 2,000; at Trypsin ((Ki for Trypsin)/(Ki for plasma kallikrein)) it was 270. Also, the pKi on Plasmin (Plasmin, substrate S-2390) was 5.49; on Thrombin (Thrombin, substrate S-2238) it was 6.51; on Human plasma kallikrein, 8.52; at Human Tissue Kallikrein, 5.22; on Trypsin (Trypsin, substrate S-2222) it was 6.08.
Turning to `CCOc1ccc(C[C@@H](NC(=O)c2ccccc2)C(=O)N[C@@H](Cc2ccccc2)C(=O)NC2CCN(C(=N)N)CC2)cc1.O=C(O)C(F)(F)F` [Example 4, (2′S,2″R)-4-(2′-(2″-Benzoylamino-3″-(4′″-ethoxyphenyl)propanoylamino)-3′-phenyl-propanoylamino)piperidine-1-carboxamidine trifluoroacetate], the pKi at Human plasma kallikrein was 8.85. At Human Tissue Kallikrein, the Selectivity is recorded as 13,000 and the pKi was 4.73.
For `CCOc1ccc(C[C@@H](N)C(=O)N[C@H](C(=O)NC2CCN(C(=N)N)CC2)[C@H](O)c2ccccc2)cc1.O=C(O)C(F)(F)F` [Example 5, (2′S,2″R, 3′R)-4-(2′-(2″-Amino-3″-(4′″-ethoxyphenyl)propanoylamino)-3′-hydroxy-3′-phenyl-propanoylamino)piperidine-1-carboxamidine trifluoroacetate], the negative-log Ki (pKi) at Human plasma kallikrein was 8.18. At Human Tissue Kallikrein, the Selectivity is on record as >10,000 and the pKi is less than 4.15.
On to `CCOc1ccc(C[C@@H](N)C(=O)N[C@H](C(=O)NC2CCN(C(=N)N)CC2)[C@H](OC)c2ccccc2)cc1` [Example 6, (2′S,2″R,3′R)-4-(2′-(2″-Amino-3″-(4′″-ethoxyphenyl)propanoylamino)-3′-methoxy-3′-phenyl-propanoylamino)piperidine-1-carboxamidine trifluoroacetate], for which, on Human plasma kallikrein, the pKi is 7.60.
Still for that read-out and setting: in the case of `N=C(N)N1CCC(NC(=O)[C@H](Cc2ccccc2)NC(=O)[C@@H](CC2CCC3CCCCC3C2)NCC(=O)O)CC1` (some centres unmarked) [Example 14] it was 8.59; in that of `COC(=O)CN[C@H](CC1CCC2CCCCC2C1)C(=O)N[C@@H](Cc1ccccc1)C(=O)NC1CCN(C(=N)N)CC1` (some centres unmarked) [Example 15], 7.72.
On the same count and under the same terms, then `N=C(N)N1CCC(NC(=O)[C@H](Cc2ccccc2)NC(=O)[C@H](N)Cc2ccc(OCc3ccccc3)cc2)CC1` [Example 32], with 8.26.
Still for that read-out and setting: in the case of `CCCOc1ccc(C[C@@H](N)C(=O)N[C@@H](Cc2ccccc2)C(=O)NC2CCN(C(=N)N)CC2)cc1` [Example 34] it was 8.15.
As for `CCOc1ccc(C[C@@H](NC)C(=O)N[C@@H](Cc2ccccc2)C(=O)NC2CCN(C(=N)N)CC2)cc1` [Example 39], the negative logarithm of the Ki (pKi) is 7.82 at Human plasma kallikrein and 4.85 at Human Tissue Kallikrein. On Human Tissue Kallikrein, this molecule had a Selectivity of 930.
Turning to `CCOc1ccc(C[C@@H](NS(C)(=O)=O)C(=O)N[C@@H](Cc2ccccc2)C(=O)NC2CCN(C(=N)N)CC2)cc1` [Example 40], the pKi at Human plasma kallikrein was 8.05; at Human Tissue Kallikrein it was 5.71. On Human Tissue Kallikrein, this molecule had a Selectivity of 210.
At Human plasma kallikrein, `CCOc1ccc(C[C@@H](NS(=O)(=O)c2ccccc2)C(=O)N[C@@H](Cc2ccccc2)C(=O)NC2CCN(C(=N)N)CC2)cc1` [Example 42] showed a negative-log Ki (pKi) of 8.35. At Human Tissue Kallikrein, the Selectivity is 1,500 and the negative-log Ki (pKi) is 5.17.
With `CCOc1ccc(C[C@@H](NC(C)=O)C(=O)N[C@@H](Cc2ccccc2)C(=O)NC2CCN(C(=N)N)CC2)cc1` [Example 43], the negative logarithm of the Ki (pKi) was 8.14 at Human plasma kallikrein and 4.16 on Human Tissue Kallikrein. Also, at Human Tissue Kallikrein, the Selectivity was 9,400.
`CCCC(=O)N[C@H](Cc1ccc(OCC)cc1)C(=O)N[C@@H](Cc1ccccc1)C(=O)NC1CCN(C(=N)N)CC1` [Example 44] had a pKi on Human plasma kallikrein of 8.39.
In the case of `CCOc1ccc(C[C@@H](NC(=O)CC)C(=O)N[C@@H](Cc2ccccc2)C(=O)NC2CCN(C(=N)N)CC2)cc1` [Example 45], the pKi at Human plasma kallikrein was 8.52; at Human Tissue Kallikrein it was 4.31. The Selectivity on Human Tissue Kallikrein was 16,000.
`CCOc1ccc2c(c1)CN[C@@H](C(=O)N[C@@H](Cc1ccccc1)C(=O)NC1CCN(C(=N)N)CC1)C2` [Example 52] had a negative logarithm of the Ki (pKi) on Human plasma kallikrein of 7.74.
